From US12049483B2, “Selective and noncovalent inhibitors of oncogenic RAS mutants” (New York University, priority 2020, dated 2024)

Tests used:
[1] = biological target: T1, KRAS(G12D) (Homo sapiens, UniProt P01116, G12D); assay: Yeast display binding titration, KRAS(G12D); conditions: GTPγS and GDP bound states
T1 construct: KRAS4B residues 1-174 containing G12C, G12V, G12D, G13D, Q61L, WT; made in house; host or cells: E. coli BL21(DE3) with pBirA
Method: Nucleotide exchange of RAS. Purified RAS proteins used in binding experiment and crystallization were prepared by diluting stock protein (typically containing 20-250 μM RAS) 25 times with 20 mM Tris-Cl buffer pH 7.5 containing 5 mM EDTA, 0.1 mM DTT and 1 mM final concentration of a nucleotide (GDP or GTPγS). Samples were incubated at 30° C. for 30 minutes. MgCl2 was then added to the sample at a final concentration of 20 mM and the solution was further incubated on ice for at least 5 minutes prior to use.
Monobody development. General procedures for the development of monobodies against purified protein targets have been described previously. After four rounds of phage display library selection using biotinylated KRAS(G12C) at concentrations of 100 nM, 100 nM, 50 nM and 50 nM, the genes encoding monobodies from the enriched phage pool were transferred to a yeast display vector, which was used to construct yeast-display libraries. The yeast display libraries were sorted using a Bio-Rad S3e fluorescence-activated cell sorter or a […] II cell sorter (BD Biosciences). […] Single clones were then screened for selective binding to RAS mutants. The expression of monobodies on the surface of yeast cells were detected using mouse anti-VS and anti-mouse IgG-FITC conjugate. Target binding was detected with neutravidin Dylight650. Yeast cells were analyzed using an iQue flow cytometer (Sartorius). […]

[2] = tested on: ERK activation (pERK); assay: ERK activation in dox-inducible monobody-expressing cell lines; type: cell-based
Method: Cell signaling assay and quantification of immunoblots. Cells were lysed in RIPA buffer (50 mM Tris-Cl pH 8, 150 mM NaCl, 5 mM EDTA pH8, 0.1% SDS, 1% NP40) supplemented with protease inhibitors (Roche; 5892991001) and phosphatase inhibitors (54 mM β-glycerophosphate, 10 mM NaF, 1 mM sodium vanadate) for 15 minutes on ice, and centrifuged at 15,000 g for 15 minutes. The supernatant was collected and measured for total protein amount using BCA assay (Thermo Scientific; 23227). Lysate (7-20 μg per well) was loaded onto a pre-cast SDS gel (BioRad; 456-1096) followed by electrophoresis. The proteins were then transferred from the gel to a low fluorescence background PVDF membrane (Millipore; IPFL00010) or regular PVDF membrane (Millipore; ISEQ00010) depending on whether fluorescence or chemiluminescence detection was performed. Phospho-ERK was detected using a rabbit anti-pERK antibody (Cell Signaling; 9101S) and total ERK was detected using a rabbit anti-ERK antibody (Cell Signaling; 9102S). Monobody expression was detected using mouse anti-Flag antibody (Sigma; F3165) or anti-HA tag antibody (BioLegend; 901516). Loading control was detected with primary antibody against tubulin-alpha (Thermo Scientific, 62204) or against cytochrome oxidase (COX IV) (Li-Cor, 926-42214). The total RAS level was detected using a pan-RAS antibody (SCBT, sc-166691). The KRAS level was determined using a KRAS-specific antibody (Sigma, WH0003845M1). For fluorescence detection of immunoblots, the membranes were imaged with a Licor Odyssey Clx imager (Li-Cor Bioscience) using IRDye anti-Rabbit 800CW and anti-Mouse 680LT (Li-Cor Bioscience, 926-32211 and 926-68020, respectively) as secondary antibodies. […] Band intensities of western blot were analyzed with Image Studio Lite version 5.2 (Li-Cor Bioscience). To quantify protein abundance in the degradation experiment, the intensities of pERK, RAS, KRAS, and Flag/HA tag bands were first normalized against the loading control of the perspective blot, which were either tubulin-α, COX IV or total ERK, followed by subsequent normalization to the zero time point. […]

[3] = tested on: KRAS mutant and control cell lines; assay: Cell proliferation assay of dox-inducible monobody-expressing cell lines; type: cell-based; conditions: KRAS(G12C) (H358 and H23) and KRAS(G12V) (PATU8902 and H441) cell lines
Method: Cell proliferation assay. […] Cells were then cultured in the presence of 1 μg/mL doxycycline for the entire duration of experiment (7-8 days) and subcultured into a new 12 well or 24 well plate every 2 days. […] The mixed culture was sampled periodically and the ratio between monobody expressing cells (mVenus and GFP positive) and non-expressing cells was determined using flow cytometry analysis (FIG. 11).

[4] = tested on: RAS-mediated signaling (pERK); assay: ERK activation in HEK293T cells co-expressing monobody and RAS mutants; type: cell-based; conditions: expressed intracellularly as a genetically encoded reagent
Method: Transient expression of KRAS and monobody for confocal imaging and signaling experiments. HEK293T cells were cultured in glass-bottom 8-well chambers (ibidi GmbH) for colocalization assays or in a 12-well plate for signaling assays for one day prior to transfection. On the day of transfection at 70-90% confluency, media were replaced with antibiotics-free complete media (DMEM supplemented with 10% FBS). Transfection of pEGFP vectors encoding the appropriate mCherry fused monobodies and EGFP fused KRAS4B constructs was performed with lipofectamine 3000 (Thermo Fisher Scientific) and according to the manufacturer's recommended protocol. […]
Cell signaling assay and quantification of immunoblots. […] The supernatant was collected and measured for total protein amount using BCA assay (Thermo Scientific; 23227). […] The proteins were then transferred from the gel to a low fluorescence background PVDF membrane (Millipore; IPFL00010) or regular PVDF membrane (Millipore; ISEQ00010) depending on whether fluorescence or chemiluminescence detection was performed. Phospho-ERK was detected using a rabbit anti-pERK antibody (Cell Signaling; 9101S) and total ERK was detected using a rabbit anti-ERK antibody (Cell Signaling; 9102S). Monobody expression was detected using mouse anti-Flag antibody (Sigma; F3165) or anti-HA tag antibody (BioLegend; 901516). […]

VSSVPTKLEVVAATPTSLLISWDAPAVTVFFYVITYGETGHGVGAFQAFKVPGSKSTATISGLKPGVDYTITVYARGYSKQGPYKPSPISINYRT [12VC1]
binding [1]: no binding
ERK activation in H358 cells ([2]; H358, after 24 and 48 hours, dox-induced expression or ARS1620 treatment): effectively inhibited
ERK activation ([2]; KRAS(G12C) (H358 and H23) and KRAS(G12V) (PATU8902 and H441) cell lines, dox-induced expression): potently inhibited
proliferation [3]: potently inhibited
RAS-mediated signaling [4]: potently inhibited
